Measured values: publication PMC7782793, “Hydroxamic acid-modified peptide microarrays for profiling isozyme-selective interactions and inhibition of histone deacetylases” (Nature Communications, 2021)
Values joined by “and” are separate entries in the source; they are usually repeats but may differ in a detail not shown here. Identical values can stand only once. Marks after values point to notes of the source that are not given here. Non-standard residues stand in square brackets, D forms with d. Residues, ends and D or L forms follow the SMILES beside them. *: point of attachment. Asu = N[C@@H](CCCCCC(=O)O)C(=O)O; NHOH = ON*

Columns and labels:
HDAC4 = molecular target: T1, HDAC4 (Homo sapiens, UniProt P56524); test: HDAC inhibition assay (fluorogenic, Ac-Leu-Gly-Lys(Tfa)-AMC); assay type: biochemical; conditions: 2 internal replicates
T1 construct: purchased BPS Bioscience 50004

HDAC3/NCoR2 [1] = molecular target: T2, HDAC3/NCoR2 (Homo sapiens, UniProt O15379); test: HDAC inhibition assay (fluorogenic, Ac-Leu-Gly-Lys(Ac)-AMC); assay type: biochemical; conditions: for HDAC3 dose-response data (relative enzyme activity), Fig. 6 + S. Fig. 10: duplicate columns
T2 construct: HDAC3/NCoR2 (full length, C-terminal His tag, NCoR2 N-terminal GST tag); purchased BPS Bioscience 50003

HDAC2 = molecular target: T3, HDAC2 (Homo sapiens, UniProt Q92769); test: as above; assay type: biochemical; conditions: for HDAC2 dose-response data (relative enzyme activity), Fig. 6 + S. Fig. 10: duplicate columns
T3 construct: HDAC2 (full length, C-terminal His tag, BPS Bioscience, cat. #: 50002); purchased BPS Bioscience 50002

HDAC1 [2] = molecular target: T4, HDAC1 (Homo sapiens, UniProt Q13547); test: Recombinant HDAC µSPOT microarray binding assay;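 also: slides with spotted peptides incubated with six HDAC concentrations in HEPES buffer pH 7.4, spot intensities fitted by four-parameter logistic, EC50 as enzyme concentration giving half-maximal binding signal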
T4 construct: HDAC1 (full length, C-terminal His tag, C-terminal FLAG tag, BPS Bioscience, cat. #: 50051); FLAG (C); purchased BPS Bioscience 50051

HDAC8 = molecular target: T5, HDAC8 (Homo sapiens, UniProt Q9BY41); test: HDAC inhibition assay (fluorogenic, Ac-Leu-Gly-Lys(Tfa)-AMC); assay type: biochemical; conditions: for HDAC8 dose-response data (relative enzyme activity, replicate values), Fig. 6 + S. Fig. 10: two replicate columns per inhibitor; for HDAC8 dose-response data (relative enzyme activity), Fig. 6 + S. Fig. 10: duplicate columns
T5 construct: HDAC8 (full length, C-terminal His tag, BPS Bioscience, cat. #: 50008); purchased BPS Bioscience 50008
T5 sequence (Q9BY41 1-377): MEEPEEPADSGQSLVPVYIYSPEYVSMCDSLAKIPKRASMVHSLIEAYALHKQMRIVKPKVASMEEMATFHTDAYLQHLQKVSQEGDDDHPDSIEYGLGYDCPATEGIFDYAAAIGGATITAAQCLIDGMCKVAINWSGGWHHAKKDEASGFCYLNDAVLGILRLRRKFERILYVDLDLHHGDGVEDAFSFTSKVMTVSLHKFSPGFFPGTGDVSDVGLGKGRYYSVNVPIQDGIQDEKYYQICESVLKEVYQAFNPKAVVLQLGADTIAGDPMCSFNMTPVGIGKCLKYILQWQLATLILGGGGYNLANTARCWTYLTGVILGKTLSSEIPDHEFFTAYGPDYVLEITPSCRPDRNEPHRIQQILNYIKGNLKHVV

HDAC3/NCoR2 [3] = molecular target: T2, HDAC3/NCoR2; test: Recombinant HDAC µSPOT microarray binding assay;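 also: peptide spots on cellulose slides incubated with rising HDAC enzyme concentrations, imaged together, four-parameter logistic fit, EC50 is enzyme concentration giving half-maximal binding signal, two experiments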
HDAC1 [4] = molecular target: T4, HDAC1; test: HDAC inhibition assay (fluorogenic, Ac-Leu-Gly-Lys(Ac)-AMC); assay type: biochemical; conditions: for HDAC1 dose-response data (relative enzyme activity), Fig. 6 + S. Fig. 10: duplicate columns
HDAC6 = molecular target: T6, HDAC6 (Homo sapiens, UniProt Q9UBN7); test: as above; assay type: biochemical; conditions: for residual enzymatic activity relative to control wells: HDAC6, replicates
T6 construct: HDAC6 (full length, BPS Bioscience, cat. #: 50056); purchased BPS Bioscience 50056
T6 sequence (Q9UBN7 1-1215): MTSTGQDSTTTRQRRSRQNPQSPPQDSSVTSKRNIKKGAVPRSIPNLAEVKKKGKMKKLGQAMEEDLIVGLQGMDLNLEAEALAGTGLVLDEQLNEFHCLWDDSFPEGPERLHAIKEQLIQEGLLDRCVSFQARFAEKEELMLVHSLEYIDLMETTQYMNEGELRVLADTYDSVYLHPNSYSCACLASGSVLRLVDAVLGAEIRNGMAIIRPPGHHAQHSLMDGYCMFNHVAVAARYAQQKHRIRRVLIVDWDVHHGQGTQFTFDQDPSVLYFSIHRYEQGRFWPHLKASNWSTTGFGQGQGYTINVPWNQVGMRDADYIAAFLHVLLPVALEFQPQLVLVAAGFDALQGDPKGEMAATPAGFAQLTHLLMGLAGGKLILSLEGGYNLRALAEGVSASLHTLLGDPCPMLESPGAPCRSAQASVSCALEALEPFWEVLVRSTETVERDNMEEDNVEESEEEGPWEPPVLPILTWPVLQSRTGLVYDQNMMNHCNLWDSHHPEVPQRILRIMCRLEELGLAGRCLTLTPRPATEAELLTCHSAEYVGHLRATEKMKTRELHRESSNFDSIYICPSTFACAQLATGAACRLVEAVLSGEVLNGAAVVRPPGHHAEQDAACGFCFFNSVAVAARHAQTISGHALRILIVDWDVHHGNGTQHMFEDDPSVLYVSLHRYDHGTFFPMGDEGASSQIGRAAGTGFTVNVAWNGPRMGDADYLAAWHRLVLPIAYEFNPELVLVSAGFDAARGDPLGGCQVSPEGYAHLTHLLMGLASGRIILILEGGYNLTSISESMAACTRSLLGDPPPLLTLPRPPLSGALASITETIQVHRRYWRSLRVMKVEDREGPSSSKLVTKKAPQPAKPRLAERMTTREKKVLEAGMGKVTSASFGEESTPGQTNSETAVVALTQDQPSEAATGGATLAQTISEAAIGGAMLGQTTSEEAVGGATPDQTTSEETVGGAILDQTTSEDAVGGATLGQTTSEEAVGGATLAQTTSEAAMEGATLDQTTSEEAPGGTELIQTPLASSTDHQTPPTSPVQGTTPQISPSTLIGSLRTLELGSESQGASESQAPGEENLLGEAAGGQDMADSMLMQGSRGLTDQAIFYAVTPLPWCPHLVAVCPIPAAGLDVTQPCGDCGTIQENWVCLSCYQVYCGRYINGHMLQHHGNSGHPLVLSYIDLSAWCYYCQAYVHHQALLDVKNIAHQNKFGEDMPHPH

[5] = log[inhibitor(M)] -10,5850266520292*, whole line marked with asterisks

T1 sequence (P56524 627-1084): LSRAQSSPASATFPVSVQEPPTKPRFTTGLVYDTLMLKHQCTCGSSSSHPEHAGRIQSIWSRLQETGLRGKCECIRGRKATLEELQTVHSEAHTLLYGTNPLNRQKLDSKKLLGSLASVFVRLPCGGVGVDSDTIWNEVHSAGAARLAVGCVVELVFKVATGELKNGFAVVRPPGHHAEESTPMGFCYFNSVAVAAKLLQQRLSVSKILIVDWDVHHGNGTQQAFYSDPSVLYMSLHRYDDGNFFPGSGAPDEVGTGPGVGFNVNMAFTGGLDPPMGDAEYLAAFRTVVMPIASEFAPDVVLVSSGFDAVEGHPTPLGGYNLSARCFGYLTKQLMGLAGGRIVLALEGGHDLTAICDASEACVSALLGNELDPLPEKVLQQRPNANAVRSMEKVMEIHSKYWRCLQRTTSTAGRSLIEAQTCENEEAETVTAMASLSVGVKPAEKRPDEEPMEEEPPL
T2 sequence (O15379 whole entry): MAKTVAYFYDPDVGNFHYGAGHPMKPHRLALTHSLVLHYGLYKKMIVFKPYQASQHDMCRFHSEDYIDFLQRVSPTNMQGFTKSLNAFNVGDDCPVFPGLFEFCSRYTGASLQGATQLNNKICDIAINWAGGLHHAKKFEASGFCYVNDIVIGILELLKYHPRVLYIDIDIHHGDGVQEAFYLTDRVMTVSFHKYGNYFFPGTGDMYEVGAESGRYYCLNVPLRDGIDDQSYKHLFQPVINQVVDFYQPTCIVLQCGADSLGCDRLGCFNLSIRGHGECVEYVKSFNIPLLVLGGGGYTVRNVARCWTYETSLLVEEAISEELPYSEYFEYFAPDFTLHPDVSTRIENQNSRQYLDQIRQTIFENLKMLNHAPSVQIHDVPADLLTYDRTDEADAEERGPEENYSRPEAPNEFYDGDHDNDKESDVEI
T2 sequence (Q9Y618 389-480 partner limits assumed): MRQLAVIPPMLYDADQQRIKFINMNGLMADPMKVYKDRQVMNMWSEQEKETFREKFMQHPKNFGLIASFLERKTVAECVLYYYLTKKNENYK
T3 sequence (Q92769 whole entry): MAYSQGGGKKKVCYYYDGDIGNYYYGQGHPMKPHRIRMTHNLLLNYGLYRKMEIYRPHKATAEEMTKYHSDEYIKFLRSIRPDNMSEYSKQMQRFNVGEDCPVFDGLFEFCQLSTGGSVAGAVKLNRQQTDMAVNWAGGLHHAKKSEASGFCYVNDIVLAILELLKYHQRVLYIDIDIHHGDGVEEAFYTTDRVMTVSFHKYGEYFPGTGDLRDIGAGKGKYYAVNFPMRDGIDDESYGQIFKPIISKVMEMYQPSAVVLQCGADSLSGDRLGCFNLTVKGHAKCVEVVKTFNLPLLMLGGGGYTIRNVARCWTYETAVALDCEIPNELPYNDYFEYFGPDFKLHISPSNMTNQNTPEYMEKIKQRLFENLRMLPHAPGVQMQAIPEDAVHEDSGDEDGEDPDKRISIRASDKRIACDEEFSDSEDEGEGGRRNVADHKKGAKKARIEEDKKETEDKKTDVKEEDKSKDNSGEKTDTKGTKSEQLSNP
T4 sequence (Q13547 whole entry): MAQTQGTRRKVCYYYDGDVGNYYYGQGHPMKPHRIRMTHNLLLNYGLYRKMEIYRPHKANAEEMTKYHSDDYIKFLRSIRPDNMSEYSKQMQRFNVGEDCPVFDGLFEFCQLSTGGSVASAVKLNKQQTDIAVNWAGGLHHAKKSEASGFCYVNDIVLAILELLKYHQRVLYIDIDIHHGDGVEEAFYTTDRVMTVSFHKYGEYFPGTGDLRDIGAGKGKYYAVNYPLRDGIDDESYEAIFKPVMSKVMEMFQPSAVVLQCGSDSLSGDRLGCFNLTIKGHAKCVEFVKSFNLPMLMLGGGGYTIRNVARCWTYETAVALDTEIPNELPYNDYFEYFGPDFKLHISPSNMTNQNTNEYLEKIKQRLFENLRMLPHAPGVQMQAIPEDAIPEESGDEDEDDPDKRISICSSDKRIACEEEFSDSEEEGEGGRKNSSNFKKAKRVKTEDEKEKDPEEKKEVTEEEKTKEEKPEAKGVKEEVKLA

SMILES: CC(=O)N[C@@H](C)C(=O)N[C@H](C(=O)NCC(=O)NCC(=O)N[C@H](C(=O)N[C@@H](CCCCCC(=O)NO)C(=O)N[C@@H](CCCCN)C(=O)N1CCC[C@H]1C(=O)N[C@@H](Cc1c[nH]cn1)C(=O)N[C@@H](CCCNC(=N)N)C(=O)N[C@@H](Cc1ccc(O)cc1)C(=O)N[C@@H](CCCNC(=N)N)C(=O)N1CCC[C@H]1C(=O)NCC(=O)N[C@H](C(=O)N[C@H](C(=O)N[C@@H](Cc1c[nH]c2ccccc12)C(N)=O)C(C)C)[C@@H](C)O)C(C)C)[C@@H](C)O [15a] (Ac-ATGGV[Asu](NHOH)KPHRYRPGTVW-NH2)
- residual enzymatic activity relative to control wells (HDAC4; inhibitor 5 µM): 108.47
- remaining activity at 5 µM (HDAC4; inhibitor 5 µM, read-out: residual enzymatic activity relative to control wells): 98.7%
- residual enzymatic activity relative to control wells (HDAC4; inhibitor 50 µM): 74.7
- remaining activity at 50 µM (HDAC4; inhibitor 50 µM, read-out: residual enzymatic activity relative to control wells): 89.4%
- Ki (HDAC3/NCoR2 [1]): 21.7 ± 0.2 nM
- HDAC3 dose-response data (relative enzyme activity), Fig. 6 + S. Fig. 10 (HDAC3/NCoR2 [1]; log[inhibitor(M)] -4.30103): 0.4402 and 0.4708
- HDAC3 dose-response data (relative enzyme activity), Fig. 6 + S. Fig. 10 (HDAC3/NCoR2 [1]; log[inhibitor(M)] -5): 1.6435 and 1.312
- HDAC3 dose-response data (relative enzyme activity), Fig. 6 + S. Fig. 10 (HDAC3/NCoR2 [1]; log[inhibitor(M)] -5.69897): 7.236 and 5.348
- HDAC3 dose-response data (relative enzyme activity), Fig. 6 + S. Fig. 10 (HDAC3/NCoR2 [1]; log[inhibitor(M)] -6.39794): 28.5726 and 19.4648
- HDAC3 dose-response data (relative enzyme activity), Fig. 6 + S. Fig. 10 (HDAC3/NCoR2 [1]; log[inhibitor(M)] -7.09691): 64.2255 and 50.9194
- HDAC3 dose-response data (relative enzyme activity), Fig. 6 + S. Fig. 10 (HDAC3/NCoR2 [1]; log[inhibitor(M)] -7.79588): 97.9959 and 83.1339
- HDAC3 dose-response data (relative enzyme activity), Fig. 6 + S. Fig. 10 (HDAC3/NCoR2 [1]; log[inhibitor(M)] -8.49485): 112.173 and 97.0745
- HDAC3 dose-response data (relative enzyme activity), Fig. 6 + S. Fig. 10 (HDAC3/NCoR2 [1]; log[inhibitor(M)] -9.19382): 112.635 and 104.337
- HDAC3 dose-response data (relative enzyme activity), Fig. 6 + S. Fig. 10 (HDAC3/NCoR2 [1]; log[inhibitor(M)] -9.89279): 114.089 and 99.1792
- HDAC2 dose-response data (relative enzyme activity), Fig. 6 + S. Fig. 10 (HDAC2; log[inhibitor(M)] -5): 7.156 and 8.696
- HDAC2 dose-response data (relative enzyme activity), Fig. 6 + S. Fig. 10 (HDAC2; log[inhibitor(M)] -5.69897): 27.5449 and 22.7201
- HDAC2 dose-response data (relative enzyme activity), Fig. 6 + S. Fig. 10 (HDAC2; log[inhibitor(M)] -7.79588): 107.892 and 100.231
- HDAC2 dose-response data (relative enzyme activity), Fig. 6 + S. Fig. 10 (HDAC2; [5]): 104,1863* and 103,2461*
- Ki (HDAC2; resynthesized peptide in solution, Cheng-Prusoff, n = 2): 70.2 ± 0.5 nM
- EC50 (HDAC1 [2]): 5.01 nM
- Ki (HDAC8): 1680 ± 13 nM
- HDAC8 dose-response data (relative enzyme activity, replicate values), Fig. 6 + S. Fig. 10 (HDAC8; Inhibitor conc [M] -8.49485 (log)): 104.092 and 106.342
- HDAC8 dose-response data (relative enzyme activity, replicate values), Fig. 6 + S. Fig. 10 (HDAC8; Inhibitor conc [M] -9.19382 (log)): 107.088 and 104.012
- HDAC8 dose-response data (relative enzyme activity, replicate values), Fig. 6 + S. Fig. 10 (HDAC8; Inhibitor conc [M] given as -7.09691 (log)): 97.5487 and 105.051
- HDAC8 dose-response data (relative enzyme activity, replicate values), Fig. 6 + S. Fig. 10 (HDAC8; Inhibitor conc [M] given as -7.79588 (log)): 103.383 and 113.008
- HDAC8 dose-response data (relative enzyme activity, replicate values), Fig. 6 + S. Fig. 10 (HDAC8; Inhibitor conc [M] given as -9.89279 (log)): 103.125 and 102.688
- HDAC8 dose-response data (relative enzyme activity), Fig. 6 + S. Fig. 10 (HDAC8; Inhibitor conc [M] -4.30103): 7.884 and 8.121
- HDAC8 dose-response data (relative enzyme activity), Fig. 6 + S. Fig. 10 (HDAC8; Inhibitor conc [M] -5): 24.6267 and 25.2578
- HDAC8 dose-response data (relative enzyme activity), Fig. 6 + S. Fig. 10 (HDAC8; Inhibitor conc [M] -5.69897): 57.0341 and 59.1741
- HDAC8 dose-response data (relative enzyme activity), Fig. 6 + S. Fig. 10 (HDAC8; Inhibitor conc [M] -6.39794): 87.2467 and 93.8953
- EC50 (HDAC3/NCoR2 [3]): 2.4 nM
- Ki (HDAC1 [4]): 70 ± 1 nM
- HDAC1 dose-response data (relative enzyme activity), Fig. 6 + S. Fig. 10 (HDAC1 [4]; log[inhibitor(M)] -4.30103): 2.2617 and 2.685
- HDAC1 dose-response data (relative enzyme activity), Fig. 6 + S. Fig. 10 (HDAC1 [4]; log[inhibitor(M)] -6.39794): 54.2155 and 43.2283
- HDAC1 dose-response data (relative enzyme activity), Fig. 6 + S. Fig. 10 (HDAC1 [4]; log[inhibitor(M)] -7.09691): 91.0731 and 84.0543
- HDAC1 dose-response data (relative enzyme activity), Fig. 6 + S. Fig. 10 (HDAC1 [4]; log[inhibitor(M)] -7.79588): 111.87 and 112.408
- HDAC1 dose-response data (relative enzyme activity), Fig. 6 + S. Fig. 10 (HDAC1 [4]; log[inhibitor(M)] -8.49485): 111.243 and 114.065
- HDAC1 dose-response data (relative enzyme activity), Fig. 6 + S. Fig. 10 (HDAC1 [4]; log[inhibitor(M)] -9.19382): 105.717 and 111.571
- HDAC1 dose-response data (relative enzyme activity), Fig. 6 + S. Fig. 10 (HDAC1 [4]; log[inhibitor(M)] -9.89279): 103.869 and 106.196
- HDAC1 dose-response data (relative enzyme activity), Fig. 6 + S. Fig. 10 (HDAC1 [4]; [5]): 100,2561* and 100,875*
- residual enzymatic activity relative to control wells (HDAC6; log[inhibitor(M)] -4.30103): 3.78 and 1.49
- residual enzymatic activity relative to control wells (HDAC6; log[inhibitor(M)] -5): 9.7 and 2.71
- residual enzymatic activity relative to control wells (HDAC6; log[inhibitor(M)] -5.69897): 22.49 and 13.07
- residual enzymatic activity relative to control wells (HDAC6; log[inhibitor(M)] -6.39794): 47.9 and 35.05
- residual enzymatic activity relative to control wells (HDAC6; log[inhibitor(M)] -7.09691): 78.65 and 63.46
- residual enzymatic activity relative to control wells (HDAC6; log[inhibitor(M)] -7.79588): 92.99 and 81.77
- residual enzymatic activity relative to control wells (HDAC6; log[inhibitor(M)] -8.49485): 99.83 and 89.79
- residual enzymatic activity relative to control wells (HDAC6; log[inhibitor(M)] -9.19382): 102.59 and 95.48
- residual enzymatic activity relative to control wells (HDAC6; log[inhibitor(M)] -9.89279): 101.36 and 96.27
- residual enzymatic activity relative to control wells (HDAC6; log[inhibitor(M)] -10.585): 101,22* and 96,07*
- Ki (HDAC6; in solution): 114 ± 2 nM
